# Assay results as given in PMC8445441, “Elucidating the mechanism by which synthetic helper peptides sensitize Pseudomonas aeruginosa to multiple antibiotics” (PLoS Pathogens, 2021).
# Read-outs that look alike come from different tables or passages of the source.
# Tests used:
# [1] = system: P. aeruginosa AUMC-Pa-3; test: microbe, parasite or virus in culture
# Outline: (§1)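 Two-fold serial dilutions in MHB received an equal volume of bacteria (suspension about 1 × 10^6 CFU/mL). Plates were held 18 h at 37 °C, then read visually for growth. Triplicate, CLSI-based.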
# [2] = system: P. aeruginosa AUMC-Pa-4; test: microbe, parasite or virus in culture
# Outline: as §1
# [3] = system: P. aeruginosa AUMC-Pa-5; test: microbe, parasite or virus in culture
# Outline: as §1
# [4] = system: P. aeruginosa AUMC-Pa-6; test: microbe, parasite or virus in culture
# Outline: as §1
# [5] = system: P. aeruginosa PAO1; test: microbe, parasite or virus in culture; conditions: PAO1; for FICI: S3 Table
# Outline: as §1
# [6] = system: P. aeruginosa ATCC27853; test: microbe, parasite or virus in culture; design: MICa: MIC of the antibiotic / MICac: MIC of the antibiotic in the combination: unit not given beside the values; conditions: strain ATCC27853
# Outline: as §1
# [7] = system: P. aeruginosa NR-31040; test: microbe, parasite or virus in culture; design: MICa: MIC of the antibiotic / MICac: MIC of the antibiotic in the combination: unit not given beside the values
# Outline: as §1
# [8] = system: P. aeruginosa NR-31041; test: microbe, parasite or virus in culture; design: MICa: MIC of the antibiotic / MICac: MIC of the antibiotic in the combination: unit not given beside the values
# Outline: as §1
# [9] = system: P. aeruginosa PA14; test: microbe, parasite or virus in culture; design: MICa: MIC of the antibiotic / MICac: MIC of the antibiotic in the combination: unit not given beside the values; conditions: strain PA14
# Outline: as §1
# [10] = system: P. aeruginosa PAK; test: microbe, parasite or virus in culture; design: MICa: MIC of the antibiotic / MICac: MIC of the antibiotic in the combination: unit not given beside the values
# Outline: as §1
# [11] = system: P. aeruginosa HM-214; conditions: strain HM-214; antibiotic + D-11 (MICb/MICbc 128/4)
# Outline: as §1
# [12] = system: P. aeruginosa AUMC-Pa-1; conditions: strain AUMC-Pa-1; antibiotic + D-11 (MICb/MICbc 128/4)
# Outline: as §1
# [13] = system: P. aeruginosa AUMC-Pa-2; conditions: strain AUMC-Pa-2; antibiotic + D-11 (MICb/MICbc 64/4)
# Outline: as §1
# [14] = system: clinical P. aeruginosa isolates; test: microbe, parasite or virus in culture; conditions: Pseudomonas aeruginosa, 18 h, antibiotic alone
# Outline: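 Broth microdilution per CLSI in MHB, two-fold drug dilutions mixed with an equal volume of bacteria at about 1 × 10^6 CFU/mL. After 18 h at 37 °C, MIC taken as the lowest concentration with no visible growth; run in triplicate.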
# [15] = antibiotic alone, unit not given
# [16] = with D-11 at MICbc 4, unit not given
structure (smiles),measurement,setting,value
C[C@@H]1O[C@@H]1P(=O)(O)O [Fosfomycin],MIC,"[1]; Pseudomonas aeruginosa, AUMCPA3, 18 h, read-out: MICa: MIC of the antibiotic",> 128 µM
same,FICI,"[1]; strain AUMC-Pa-3, antibiotic + D-11 (MICb/MICbc 128/4)",0.156
same,MICac: MIC of the antibiotic in the combination,"[1]; strain AUMC-Pa-3, with D-11 at MICbc 4, unit not given",32
same,MIC,"[2]; Pseudomonas aeruginosa, AUMCPA4, 18 h, read-out: MICa: MIC of the antibiotic",> 128 µM
same,FICI,"[2]; strain AUMC-Pa-4, antibiotic + D-11 (MICb/MICbc 128/4)",1.031
same,MICac: MIC of the antibiotic in the combination,"[2]; strain AUMC-Pa-4, with D-11 at MICbc 4, unit not given",>128/>128
same,MIC,"[3]; Pseudomonas aeruginosa, AUMCPA5, 18 h, read-out: MICa: MIC of the antibiotic",> 128 µM
same,FICI,"[3]; strain AUMC-Pa-5, antibiotic + D-11 (MICb/MICbc 64/4)",0.563
same,MICac: MIC of the antibiotic in the combination,"[3]; strain AUMC-Pa-5, with D-11 at MICbc 4, unit not given",>128/128
same,MIC,"[4]; Pseudomonas aeruginosa, AUMCPA6, 18 h, read-out: MICa: MIC of the antibiotic",> 128 µM
same,FICI,"[4]; strain AUMC-Pa-6, antibiotic + D-11 (MICb/MICbc 64/4)",1.063
same,MICac: MIC of the antibiotic in the combination,"[4]; strain AUMC-Pa-6, with D-11 at MICbc 4, unit not given",>128/>128
same,MIC,"[5]; Pseudomonas aeruginosa, PAO1, 18 h, read-out: MICa: the MIC of antibiotics, S3 Table, antibiotic alone",> 128 µM
same,FICI,[5]; antibiotic + 2 μM D-11,0.188
same,FICI,[5]; antibiotic + 4 μM D-11,0.188
same,FICI,[6]; antibiotic + D-11 (MICb/MICbc 32/4),0.188
same,MICa: MIC of the antibiotic,[6]; [15],128
same,MICac: MIC of the antibiotic in the combination,[6]; [16],8
same,MIC,"[7]; Pseudomonas aeruginosa, NR31040, 18 h, read-out: MICa: MIC of the antibiotic",> 128 µM
same,FICI,"[7]; strain NR-31040, antibiotic + D-11 (MICb/MICbc 128/4)",0.531
same,MICac: MIC of the antibiotic in the combination,"[7]; strain NR-31040, with D-11 at MICbc 4, unit not given",>128/128
same,MIC,"[8]; Pseudomonas aeruginosa, NR31041, 18 h, read-out: MICa: MIC of the antibiotic",> 128 µM
same,FICI,"[8]; strain NR-31041, antibiotic + D-11 (MICb/MICbc 64/4)",0.563
same,MICac: MIC of the antibiotic in the combination,"[8]; strain NR-31041, with D-11 at MICbc 4, unit not given",>128/128
same,FICI,[9]; antibiotic + D-11 (MICb/MICbc 128/4),0.281
same,MICa: MIC of the antibiotic,[9]; [15],128
same,MICac: MIC of the antibiotic in the combination,[9]; [16],32
same,MIC,"[10]; Pseudomonas aeruginosa, 18 h, read-out: MICa: MIC of the antibiotic",> 128 µM
same,FICI,"[10]; strain PAK, antibiotic + D-11 (MICb/MICbc 64/4)",0.313
same,MICac: MIC of the antibiotic in the combination,"[10]; strain PAK, with D-11 at MICbc 4, unit not given",64
same,FICI,[11],0.281
same,FICI,[12],0.281
same,FICI,[13],0.188
same,MIC,"[14]; read-out: Antibiotic sensibility (MIC) of clinical P. aeruginosa isolate AUMC-Pa-1, strain AUMC-Pa-1",> 128 µM
same,MIC,"[14]; read-out: Antibiotic sensibility (MIC) of clinical P. aeruginosa isolate AUMC-Pa-2, strain AUMC-Pa-2",128 µM
same,MIC,"[14]; read-out: Antibiotic sensibility (MIC) of clinical P. aeruginosa isolate AUMC-Pa-3, strain AUMC-Pa-3",> 128 µM
same,MIC,"[14]; read-out: Antibiotic sensibility (MIC) of clinical P. aeruginosa isolate AUMC-Pa-4, strain AUMC-Pa-4",> 128 µM
same,MIC,"[14]; read-out: Antibiotic sensibility (MIC) of clinical P. aeruginosa isolate AUMC-Pa-5, strain AUMC-Pa-5",> 128 µM
same,MIC,"[14]; read-out: Antibiotic sensibility (MIC) of clinical P. aeruginosa isolate AUMC-Pa-6, strain AUMC-Pa-6",> 128 µM
same,MIC,"[14]; read-out: Antibiotic sensibility (MIC) of clinical P. aeruginosa isolate HM-214, strain HM-214",> 128 µM
same,MIC,"[14]; read-out: Antibiotic sensibility (MIC) of clinical P. aeruginosa isolate NR-31040, strain NR-31040",> 128 µM
same,MIC,"[14]; read-out: Antibiotic sensibility (MIC) of clinical P. aeruginosa isolate NR-31041, strain NR-31041",> 128 µM
